2 compounds from patent publication US10246498B2, “Genetically encoded histone reporter allele constructs” (THE JOHNS HOPKINS UNIVERSITY, priority 2014, dated 2019) can be followed below.

Experiment [1] relates to acetylation machinery (acetylation of H4 at K5, K8, K12, K16). The experiment can be described thus: H4 acetylation (H4ac) reporter allele, GFP fluorescence by FACS. Particulars: for cells easily discriminated from auto fluorescence (% positive cells), H4ac reporter: FACS. The experiment is classed as cell-based. An excerpt: The acetyl reporter protein quantifies the activity of the acetylation machinery (acetylation of H4 specifically at the 5th, 8th, 12th and 16th Lysine's) and comprises an H4 tail on one end (the target for acetylation) and a TBP associated factor II (TAFII) bromodomain on the other end of the reporter protein (FIG. 5A). The TAFII bromodomain only recognizes and binds to the acetylated H4 tail, resulting in reconstitution of GFP structure and function (i.e. fluorescence). Therefore, the reporter protein has no fluorescence unless it is acetylated by the acetylation system of the nucleus of the cell.
(§1) Epigenetic reporter alleles were synthesized (OriGene, Rockville, Md.) using published sequences for component elements (Baird et al. (1999) Proc. Natl. Acad. Sci. 96:11241-6; Souslova et al. (2007) BMC Biotechnol. 7:37). Single nucleotide mutations were created using the QuickChange Lightening kit (Agilent Technologies Inc, Santa Clara, Calif.). For H4ac indicator, K5R, K8R, K12R, K16R and K20R (MUT indicator) were introduced. For H3K4me3 indicator, K4Q and D890A/W891A and M882A (three separate constructs) were introduced. For transient transfections, mouse embryonic fibroblasts (see below) were transfected with Fugene HD (Promega, Madison, Wis.), 48 hours prior to FACS. […] For drug stimulation, drug was added to the media 24 hours prior to FACS. For stable transfections in T293 (American Type Culture Collection) cells, 10 μg/ml of Blastocidin (Life Technologies, Carlsbad, Calif.) was added to the media for several weeks. For stable transfection in MEFs, the reporter was transferred to a ViraPower Lentiviral Expression System (Life Technologies, Carlsbad, Calif.). After selection with Blastocidin, the drug of interest was added 24 hours prior to FACS. SAHA, AR-42 and MS275 were purchased from Selleck (Selleck Chemicals, Houston, Tex.). […] FACS data were analyzed using FlowJo (Tree Star Inc, Ashland, Oreg.). A plasmid expressing HDAC3 was acquired from Addgene (Cambridge, Mass., plasmid 13819) and transfected into a stable cell line carrying the H4 acetyl reporter allele.
Epigenetic reporter systems were created that monitor either H4 acetylation or H3K4 trimethylation machinery activity in an effort to determine whether there is an ongoing activity deficiency in cells from Kmt2d^+/βGeo mice (FIG. 18A). Both reporter alleles encode halves of green fluorescent protein separated by a flexible linker region (Baird et al. (1999) Proc. Natl. Acad. Sci. 96: 11241-6) with a histone tail and a histone reader at the N- and C-termini, respectively. When the histone tail corresponding to either H4 or H3 is modified by acetylation or methylation, respectively, GFP structure and function are reconstituted, as detected by a fluorescent readout (FIG. 18B). The acetyl reporter protein quantifies the activity of the acetylation machinery (acetylation of H4 specifically at sites K5, K8, K12, and K16) and comprises an H4 tail (residues 1-30) on one end and a TATA binding protein (TBP)-associated factor II (TAFII) bromodomain on the other end (FIG. 18A). The TAFII bromodomain only recognizes and binds to the acetylated H4 tail. […] For example, only 5% of cells were easily discriminated from auto fluorescence with 1 μM of SAHA, but increased to 20% with 2.5 μM of SAHA, 40% at 7.5 μM of SAHA and 45% at 10 μM of SAHA (FIG. 18D). Saturation of this response correlates well with immunoblot data using antibodies to the modified H4 tail (Munshi et al. (2006) Mol. Cancer Ther. 5:1967-74). This response is attenuated by co-transfection with a construct encoding a histone deacetylase (FIG. 20) and absent upon mutagenesis of all potential acetylation sites (FIG. 18E and FIG. 18I), attesting to its specificity. The H3K4 trimethylation reporter allele encodes the H3 tail (residues 1-40) on one end and the TBP-associated factor III (TAF3) plant homeodomain (PHD) on the other end, which binds to trimethylated K4 on H3 (FIG. 18A). […]

Experiment [2] concerns H3K4 trimethylation activity in MEFs. The experiment can be described thus: H3K4me3 indicator in murine embryonic fibroblasts from Kmt2d+/βGeo and Kmt2d+/+ mice. Particulars: Kmt2d+/βGeo cells (MEFs). The experiment is classed as cell-based, mouse.
From the text: An H3K4 trimethylation reporter was also created (FIG. 5B). This reporter is based on the H3 tail on one end and the TBP associated factor III (TAFIII) […] on the other end; the TAFIII […] only identifies and binds to trimethylated K4 on H3. When the H3K4 site gets trimethylated, the TAFIII […] can bind to the modified H3 tail and bring the two parts of the separated GFP in close proximity. The activity of the epigenetic modification system can be quantified through fluorescence.
as §1

Entries after “also recorded” stand apart in the source; their conditions may differ.

For the compound `O=C(CCCCCCC(=O)Nc1ccccc1)NO` [SAHA, suberoylanilide hydroxamic acid], the “cells easily discriminated from auto fluorescence (% positive cells), H4ac reporter” value in experiment [1] (1 μM SAHA) worked out at 5%; in experiment [1] (2.5 μM SAHA), 20%; in experiment [1] (7.5 μM SAHA), 40%; in experiment [1] (10 μM SAHA) it was 45%. Moreover, in experiment [1] (FIG. 19A), the “acetylation of the indicator” value is “increases acetylation of the indicator”. For the same compound, the “signal of the H4ac indicator” value in experiment [1] (HEK293 cells stably expressing the indicator, attenuated by recombinant HDAC3) is given as “increased signal”. In experiment [1] (increasing amounts of drug, culture systems), the “fluorescence response of the acetylation indicator” value is “linear fluorescence response; also recorded: increasing fluorescence with increasing amounts”.
On to `Nc1ccccc1NC(=O)c1ccc(CNC(=O)OCc2cccnc2)cc1` [MS275], for which, in experiment [2], the H3K4 trimethylation activity entry is on record as “enhanced; also recorded: improved”.
